Results from ChEMBL document CHEMBL1201862, “PubChem BioAssay data set” (2004).
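The compound was tested at five concentrations on cells cultured in 96-well plates, with a 48-hour exposure period. The concentration for 50% growth inhibition is given as GI50.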 The source made the active and inactive calls. Rule as the data show it: active = GI50 up to about 1.1 µM and inactive = higher.

Assays:
Test in all cases: NCI-60 cell line screen, 48 h
[1] = system: NCI-H23
[2] = system: HCT-15
[3] = system: Malme-3M
[4] = system: SN12C
[5] = system: SNB-19
[6] = system: KM12
[7] = system: IGROV-1
[8] = system: BT-549
[9] = system: SF-539
[10] = system: U-251
[11] = system: CAKI-1
[12] = system: UO-31
[13] = system: LOX IMVI
[14] = system: NCI/ADR-RES
[15] = system: MCF7
[16] = system: UACC-257
[17] = system: PC-3
[18] = system: HCC 2998
[19] = system: MOLT-4

Row | Structure (SMILES) | GI50 [1] | GI50 [2] | GI50 [3] | GI50 [4] | GI50 [5] | GI50 [6] | GI50 [7] | GI50 [8] | GI50 [9] | GI50 [10] | GI50 [11] | GI50 [12] | GI50 [13] | GI50 [14] | GI50 [15] | GI50 [16] | GI50 [17] | GI50 [18] | GI50 [19]
1 | O=C(O)CSc1nnc2c3ccccc3c3ccccc3c2n1 | > 100 µM (inactive) | 44.5 µM | 30 µM (inactive) | 38.9 µM (inactive) | 44.7 µM (inactive) | 42 µM (inactive) | 55.6 µM (inactive) | > 100 µM (inactive) | 52.2 µM (inactive) | 46.8 µM (inactive) | > 100 µM (inactive) | 33.6 µM (inactive) | 41.6 µM (inactive) | > 100 µM (inactive) | 40.3 µM (inactive) | > 100 µM (inactive) | 50.2 µM (inactive) | 52.6 µM (inactive) | 
2 | O=C(Nc1cc2c(=O)[nH]c3ccccc3c2oc1=O)c1cnccn1 | > 100 µM (inactive) | > 100 µM | > 100 µM (inactive) | > 100 µM (inactive) | > 100 µM (inactive) | > 100 µM (inactive) | > 100 µM (inactive) | > 100 µM (inactive) | > 100 µM (inactive) | > 100 µM (inactive) | > 100 µM (inactive) | 80.9 µM (inactive) | > 100 µM (inactive) | > 100 µM (inactive) | > 100 µM (inactive) | > 100 µM (inactive) | > 100 µM (inactive) | > 100 µM (inactive) | > 100 µM (inactive)
3 | CNc1ncnc2c1cnn2COCC(O)CO (stereo not given) | > 100 µM (inactive) | > 100 µM | > 100 µM (inactive) | > 100 µM (inactive) | > 100 µM (inactive) | > 100 µM (inactive) | > 100 µM (inactive) | > 100 µM (inactive) | > 100 µM (inactive) | > 100 µM (inactive) | > 100 µM (inactive) | > 100 µM (inactive) | > 100 µM (inactive) | > 100 µM (inactive) | > 100 µM (inactive) | > 100 µM (inactive) | > 100 µM (inactive) | > 100 µM (inactive) | > 100 µM (inactive)
4 | Fc1cc(-c2ncc(Cl)cc2Cl)c2cccccc1-2 | > 100 µM (inactive) | > 100 µM | > 100 µM (inactive) |  | > 100 µM (inactive) | > 100 µM (inactive) | > 100 µM (inactive) | > 100 µM (inactive) | > 100 µM (inactive) |  | > 100 µM (inactive) | > 100 µM (inactive) | > 100 µM (inactive) | > 100 µM (inactive) | 35.7 µM (inactive) | > 100 µM (inactive) | > 100 µM (inactive) | > 100 µM (inactive) | 
5 | CCOC(=O)NN(C(=O)OCC)C(C(=O)C1=CCCCC1)N(NC(=O)OCC)C(=O)OCC | > 100 µM (inactive) | > 100 µM | > 100 µM (inactive) | > 100 µM (inactive) | > 100 µM (inactive) | > 100 µM (inactive) | > 100 µM (inactive) | > 100 µM (inactive) | 9.57 µM (inactive) | > 100 µM (inactive) | > 100 µM (inactive) | > 100 µM (inactive) | > 100 µM (inactive) | > 100 µM (inactive) | > 100 µM (inactive) | > 100 µM (inactive) | > 100 µM (inactive) | > 100 µM (inactive) | > 100 µM (inactive)
6 | COC(=O)[C@H](CCSC)NC(=O)c1ccc(CNC(=O)/C=C/c2cccc(Oc3ccccc3)c2)cc1 | 42 µM (inactive) | > 62.8 µM | 18.8 µM (inactive) | 60.5 µM (inactive) | > 95.1 µM (inactive) | > 100 µM (inactive) | 27.5 µM (inactive) | > 69.7 µM (inactive) | > 74.3 µM (inactive) | > 100 µM (inactive) | > 46.5 µM (inactive) | 42.9 µM (inactive) | 51.8 µM (inactive) | 43 µM (inactive) | 38.6 µM (inactive) | 11.5 µM (inactive) | > 75 µM (inactive) | 28.5 µM (inactive) | 8.83 µM (inactive)
